Test results: patent US20120207835A1, “BROAD-SPECTRUM BIOCIDE COMPOSITIONS AND A METHOD FOR THEIR PREPARATION” (BROMINE COMPOUNDS LTD., priority 2009, published 2012)

Columns and labels:
A. niger = experiment: Agar plate test: diameter of the A. niger growth ring after contact with biocide matrix; format: cell-based; conditions: for A. niger diameters (cm), 3 days: day 3; for A. niger diameters (cm), 7 days: day 7; for A. niger diameters (cm), 14 days: day 14; for A. niger diameters (cm), 21 days: day 21; for A. niger diameters (cm), 28 days: day 28
Method: Samples of the prepared materials were dispersed in hot (˜45° C.) agar, under stirring. […] Pure DBNPA and commercial biocide (OTW) were used as standards. All the results were duplicated to assure accuracy.

[1] = room temperature; cited from earlier work
[2] = 300 ppm in agar (column DBNPA in agar, ppm), inoculum plug ID 1 cm
[3] = 300 ppm in agar, inoculum plug ID 1 cm

| SMILES | A. niger diameters (cm), 3 days (A. niger; [2]) [cm] | A. niger diameters (cm), 7 days (A. niger; [3]) [cm] | A. niger diameters (cm), 14 days (A. niger; [3]) [cm] | A. niger diameters (cm), 21 days (A. niger; [3]) [cm] | A. niger diameters (cm), 28 days (A. niger; [3]) [cm] | time to loss of activity by decomposition in aqueous media [1] [days] | concentration at which activity is demonstrated (A. niger) [ppm] | time over which activity is lost (A. niger; 300 ppm DBNPA) [days] | A. niger diameters (cm), 3 days (A. niger; 1000 ppm DBNPA in agar) [cm] | A. niger diameters (cm), 7 days (A. niger; 1000 ppm DBNPA in agar) [cm] | A. niger diameters (cm), 14 days (A. niger; 1000 ppm DBNPA in agar) [cm] | A. niger diameters (cm), 21 days (A. niger; 1000 ppm DBNPA in agar) [cm] | A. niger diameters (cm), 28 days (A. niger; 1000 ppm DBNPA in agar) [cm] |
| --- | --- | --- | --- | --- | --- | --- | --- | --- | --- | --- | --- | --- | --- |
| CCCCCCCCn1sccc1=O [OTW neat, N-octylisothiazolinone] | 1 | 1 | 1 | 1 | 1 | – | – | – | – | – | – | – | – |
| N#CC(Br)(Br)C(N)=O [DBNPA, 2,2-dibromo-3-nitrilopropionamide] | 3.7 | 10 | 10 | 10 | 10 | 2 to 3 | > 1000 | 3 | 1 | 1 | 1 | 1 | 1 |
